# Laboratory results: patent US7700562B2, “Use of —furin—“convertase” inhibitors in the treatment of fibrosis and scarring” (Renovo Limited, priority 2002, dated 2010)
# Non-standard residues stand in square brackets, D forms with d. Residues, ends and D or L forms follow the SMILES beside them. *: point of attachment. Sta = CC(C)C[C@H](N)[C@@H](O)CC(=O)O; Decanoyl = CCCCCCCCCC(=O)*; Isovaleryl = CC(C)CC(=O)*; CH2Cl = ClC*
# Key:
# [1] = system: latent TGF-β activation in human platelets; assay: TGF-β activation by thrombin-activated human platelets, active and total TGF-β by PAI/L bioassay; type: cell-based; settings: for latent TGF-β activation: platelets pre-incubated with inhibitor before thrombin stimulation, platelet releasates, FIG. 1 panels A and B
# [2] = system: latent TGF-β activation in human platelets; assay: as above; type: cell-based; settings: for active TGF-β in releasates: thrombin-stimulated platelets, hexaarginine pre-incubated, dec-RVKR-cmk added, FIG. 2 panel A
# Description: Peripheral venous blood samples from healthy adult volunteers (aged 21 to 45) were taken into 20-gauge S-Monovettes. EDTA was used to prevent coagulation of the samples. Human platelets were isolated by differential centrifugation according to the following protocol:
# Blood samples were centrifuged at 300 g for 10 minutes to produce a supernatant of platelet rich plasma. Platelet rich plasma was then centrifuged at 2,500 g for 15 minutes to produce a pellet of platelets. Platelets were harvested from the pellet and resuspended prior to use.
# (§1) Platelets collected as described above were resuspended in distilled water and incubated at room temperature for 5 minutes. Lysis was stopped by addition of an equal volume of 2× serum-free DME medium containing 0.2% pyrogen poor bovine serum albumen. The lysate was cleared by centrifugation at 12,000 g for 10 minutes at room temperature before use.
# Human platelets collected as outlined above were activated by the addition of thrombin (0.1 u/ml for 30 minutes at 37° C.).
# Platelets were activated with thrombin in the absence or presence of furin inhibitors. […] Active and total TGF-β in releasates were determined in the PAI/L bioassay. The results are shown in panel A of FIG. 2.
# [3] = system: latent TGF-β activation in platelet-free releasates; assay: TGF-β activation in platelet-free releasates of activated platelets, PAI/L bioassay; type: biochemical, human; settings: inhibitor added to platelet-free releasates, 30 mm at 37° C.; FIG. 2B
# Description: In a further experiment, furin inhibitors were added to platelet-free releasates of activated platelets, and activation was allowed to continue in the absence of platelets for […] at 37° C. The results of this experiment are shown in panel B of FIG. 2. Active TGF-β levels in the controls were 77 pg/ml (dec-RVKR-cmk data (SEQ ID NO:1)) and 104 pg/ml (hexaarginine data (SEQ ID NO: 7)). Incubation on ice reduced activation in the controls to approximately 56% (data not shown). Data represent the mean values of three independent experiments assayed in triplicate.
# [4] = system: furin-like enzyme activity; assay: Furin-like enzyme activity in platelet lysates and releasates, fluorogenic furin substrate pyr-RTKR-amc; type: biochemical, human; settings: hexaarginine 200 μM, dec-RVKR-cmk 150 μM, FIG. 3; for furin-like enzyme activity in cell lysates: hypotonic lysates of activated platelets; for furin-like enzyme activity in releasates: releasates of activated platelets
# Description: as §1
# Releasates or hypotonic lysates of activated platelets were assayed using the furin substrate, pyr-RTKR-amc (SEQ ID NO:3) in the absence or presence of the furin inhibitors, hexaarginine (SEQ ID NO: 7) (200 μM) or dec-RVKR-cmk (SEQ ID NO:1) (150 μM). Values were corrected for substrate-independent endogenous fluorescence (control without substrate) as well as for spontaneous substrate hydrolysis (buffer control). Mean values±S.E.M. of 2-3 separate experiments assayed in duplicate are shown.
# The presence of furin-like enzyme activity in both hypotonic lysates and releasates of human platelets was analysed using the fluorogenic furin substrate, pyr-RTKR-amc (SEQ ID NO:3). Platelet lysates contained a furin-like enzyme activity, part of which (approximately 12%) was released upon thrombin stimulation. Enzyme activity in cell lysates and releasates was inhibited by dec-RVKR-cmk (SEQ ID NO:1) and hexa-L-arginine (SEQ ID NO: 7) (FIG. 3).
compound,measurement,setting,value
CC(C)C[C@H](NC(=O)[C@H]1O[C@@H]1C(=O)O)C(=O)NCCCCN=C(N)N [E-64],latent TGF-β activation,[1],ineffective
"O=C[C@@H](O)[C@@H](O)[C@H](O)[C@H](O)COP(=O)(O)O [M6P, mannose-6-phosphate]",latent TGF-β activation,[1],not significantly affected
CC(=O)N[C@@H](CC(C)C)C(=O)N[C@@H](CC(C)C)C(=O)N[C@H](C=O)CCCNC(=N)N [leupeptin],latent TGF-β activation,[1],ineffective
Cl.NCCc1ccc(S(=O)(=O)F)cc1 [pefabloc],latent TGF-β activation,[1],ineffective
CC(C)CC(=O)N[C@H](C(=O)N[C@H](C(=O)N[C@@H](CC(C)C)[C@@H](O)CC(=O)N[C@@H](C)C(=O)N[C@@H](CC(C)C)[C@@H](O)CC(=O)O)C(C)C)C(C)C [pepstatin] (Isovaleryl-VV[Sta]A[Sta]-OH),latent TGF-β activation,[1],ineffective
LSKL peptide: inhibitor specific for TSP-1,latent TGF-β activation,[1],not significantly affected
aprotinin,latent TGF-β activation,[1],ineffective
decanoyl-Arg-Val-Lys-Arg-chloromethyl ketone (Decanoyl-RVKR-CH2Cl) [dec-RVKR-cmk],generation of active TGF-β intracellularly,"[1]; measured in hypotonic lysates, dose-dependent, FIG. 1 panel C",drastically reduced
same,generation of active TGF-β in releasates,"[1]; platelet incubation with inhibitor, thrombin stimulation, dose-dependent, FIG. 1 panel C",drastically reduced
same,residual TGF-β present,"[2]; remaining after inhibitor, believed to be activated prematurely during platelet preparation",20-30%
same,active TGF-β in releasates,[2],considerably reduces
same,activation in platelet-free releasates,[3],"inhibited, in a dose-dependent fashion"
same,furin-like enzyme activity in cell lysates,[4],inhibited
same,furin-like enzyme activity in releasates,[4],inhibited
hexa-L-arginine (RRRRRR),active TGF-β in releasates,[2],significantly reduced
same,activation in platelet-free releasates,[3],"inhibited, in a dose-dependent fashion"
same,furin-like enzyme activity in cell lysates,[4],inhibited
same,furin-like enzyme activity in releasates,[4],inhibited
α1-antitrypsin,latent TGF-β activation,[1],ineffective
